Here are results for 3 compounds from PMC10564737, “Structure-based design of a phosphotyrosine-masked covalent ligand targeting the E3 ligase SOCS2” (Nature Communications, 2023).

Structures are written as SMILES. Values joined by “and” are separate entries in the source; they are usually repeats but may differ in a detail not shown here. Identical values can stand only once.

In experiment [1] the target is T1, SBC2 (Homo sapiens, UniProt O14508).
T1 construct: SOCS2 (amino acids 32–198); His6 (N, cleaved yes); made in house; host or cells: E. coli BL21(DE3)
T1 sequence (O14508 32-198): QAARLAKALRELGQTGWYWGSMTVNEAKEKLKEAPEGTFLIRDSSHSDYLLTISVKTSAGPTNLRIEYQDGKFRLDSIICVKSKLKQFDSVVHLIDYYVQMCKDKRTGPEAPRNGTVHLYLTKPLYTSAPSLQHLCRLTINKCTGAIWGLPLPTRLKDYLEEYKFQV
T1 sequence (Q15370 1-104 partner limits assumed): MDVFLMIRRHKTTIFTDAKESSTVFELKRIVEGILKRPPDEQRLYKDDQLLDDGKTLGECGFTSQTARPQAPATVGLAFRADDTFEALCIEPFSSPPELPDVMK
T1 sequence (Q15369 17-112 partner limits assumed): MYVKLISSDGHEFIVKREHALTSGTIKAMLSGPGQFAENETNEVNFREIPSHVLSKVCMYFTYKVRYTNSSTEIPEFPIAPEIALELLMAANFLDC
The experiment is described as follows: Surface plasmon resonance (SPR) with SBC2 immobilized on the chip. Type of experiment: binding. The following applies: for improvement of binding affinity compared to 5: SPR; for Kd: Table 2, second-round library, n = 1. An excerpt:
First, we decided to optimize the N-terminal region of 1 while maintaining the N-methylamide group at the C-terminus. To generate analogs rapidly, we employed a solid phase synthesis using methyl indole AM resin. After Fmoc deprotection, the resin was loaded with Fmoc-Tyr (PO(OBzl)2)-OH[29]. Subsequent coupling with various commercially available carboxylic acids and cleavage with TFA allowed the rapid synthesis of N-methylcarboxamide phosphotyrosines (Supplementary Fig. 1). We introduced different substituents at the N-terminus to cover a range of physicochemical properties (e.g. alicyclic, heterocyclic, aromatic with electron-withdrawing and electron-donating groups) to maximize potential interactions (see Table 1 for representative examples). Binding affinities of the synthesized compounds for SOCS2 were measured via two orthogonal biophysical binding assays: (1) surface plasmon resonance (SPR) with SBC2 immobilized on the chip (Supplementary Fig. 7); and (2) ^19F ligand-observed displacement NMR assays, providing two orthogonal biophysical measurements of dissociation constants (KD)[29],[31]. We found an excellent correlation between the KD values measured via the two techniques (Table 1). Para-substituted benzyl moieties yielded the greatest contributions to binding affinity and there were only slight differences between electron-withdrawing groups such as a methyl ester and electron-donating such as methoxy group.
SPR experiments were performed using a Biacore S200 instrument (GE Healthcare) in 20 mM HEPES pH 7.5, 150 mM NaCl, 1 mM TCEP, 0.005% Tween20, 2% DMSO buffer at 10 °C. Biotinylated SBC2 was immobilized onto a chip surface (the final surface density of biotinylated SBC2 was ~3000–4000 RU). AviTagged-SBC was biotinylated using BirA enzyme as per manufacturer’s protocol (Avidity). Compounds were serially diluted in the running buffer and injected individually: contact time 60 s, flow rate 30 μL/min, dissociation time 150 s, using a stabilization period of 30 s and syringe wash (50% DMSO) between injections. Data analysis was carried out using Biacore Evaluation Software (GE Healthcare). All data were double-referenced for reference surface and blank injection. The processed sensograms were fit to a steady-state affinity using a 1:1 binding model for KD estimation.

In experiment [2] the target is T1, SBC2. In words: Isothermal titration calorimetry (ITC), direct titration. The following applies: for Kd: ITC KD, direct ITC, 298 K. Type of experiment: binding. The protocol: Experiments were performed with ITC200 instrument (Malvern) in 100 mM HEPES pH 7.5, 50 mM NaCl, 0.5 mM TCEP at 298 K. The ITC titration consisted of 0.4 μl initial injection (discarded during data analysis) followed by 19 of 2 μl injections at 120 s interval between injections. 1 mM of the ligands in 2–4% DMSO were titrated into 100 μM SBC2. […] Binding data was subtracted from a control titration where ligand was titrated into buffer, and fitted using a one-set-of-site binding model to obtain dissociation constant (Kd), binding enthalpy (ΔH), and stoichiometry (N) using MicroCal PEAQ-ITC Analysis Software1.1.0.1262 and MicroCal ITC-ORIGIN Analysis Software 7.0 (Malvern).

Experiment [3] deals with T2, HiBiT-SOCS2 fusion in HeLa cells (Homo sapiens, UniProt O14508).
T2 construct: encoding SOCS2 (32–198) in pBiT3.1-N expression vector; expressed in transfected cells; host or cells: HeLa
T2 sequence (O14508 32-198): as the sequence (O14508 32-198) above
T2 sequence (Q15370 whole entry, further chain, the tested form may be a part): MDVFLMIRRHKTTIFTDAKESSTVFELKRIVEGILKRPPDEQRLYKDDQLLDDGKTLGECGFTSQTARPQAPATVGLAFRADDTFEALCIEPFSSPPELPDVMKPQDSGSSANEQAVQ
T2 sequence (Q15369 whole entry, further chain, the tested form may be a part): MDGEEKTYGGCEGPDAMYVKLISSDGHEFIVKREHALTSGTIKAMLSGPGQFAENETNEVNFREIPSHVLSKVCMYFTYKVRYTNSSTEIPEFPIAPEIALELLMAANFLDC
In words: Split-NanoLuc CETSA, live-cell mode. Type of experiment: cell-based. The following applies: for Produrg CETSA screening, raw signal: 50uM 20hrs. On the set-up: Produrg CETSA screening, raw signal: reference not given here. The procedure: One of the challenges with small-molecule binders displaying on-target activity with recombinant proteins, is to translate their utility to a cellular context. […] One of the advantages of CETSA is that target engagement can be monitored without the need for the development of a cell-permeable tracer molecule.
We utilized CETSA in a live-cell mode to evaluate the efficacy and rank the different prodrugs. We treated live HeLa cells with 50 μM compound (prodrugs) for 20 h and monitored Tagg shift as a proxy for the combo of prodrug permeability and unmasking (Fig. 4d). […] The observation could be because the POM group unmasking requires only esterase unlike the reliance of compounds 21–23 on esterase and phosphoramidase for unmasking an aryloxy phosphoramidate group.
N-terminal HiBiT-SOCS2 fusion was generated by encoding SOCS2 (32–198) in pBiT3.1-N expression vector (Promega). The transfection and target engagement assay were performed by modifying a NanoLuc target engagement protocol (Promega) with some small modifications. Briefly, HiBiT-SOCS2 fusion construct was transfected into HeLa cells using FuGENE HD (Promega) according to the manufacturer’s protocol. HiBiT-SOCS2 fusion construct was diluted into Transfection Carrier DNA (Promega) at a mass ratio of 1:100 or 1:10 for permeabilised and live-cell CETSA respectively. FuGENE HD was added at a ratio of 1:3 (μg DNA: μL FuGENE HD). 1 part (vol) of FuGENE HD complexes thus formed were combined with 20 parts (vol) of HeLa cells suspended at a density of 2 × 10^5 cells/mL, followed by incubation in a humidified, 37 °C + 5% CO2 incubator. After 20 h of incubation HeLa cells were detached and resuspended at a density of 2.5 × 10^5 cells/mL in Opti-MEM media without serum or phenol red but supplemented with protease inhibitor cocktail (Roche). Compounds stocks were added to cell suspension to maintain a final DMSO concentration of 1%. For the permeabilised assay format, 96-well PCR plates (Thermo) were pre-treated with digitonin to have a final well concentration of 50 μg/ml. 50 μl Opti-MEM cell suspension was then aliquoted to each well of the 96-well plate. The plates are then covered with microporous tape sheet (Qiagen) prior to incubation in a humidified, 37 °C + 5% CO2 incubator. Post-incubation we heat the PCR plates in 16-point temperature (split across two runs) curve spanning degrees 40-72 °C temperature span (CFX96 Touch Real-Time PCR Detection System, BioRad). The thermal cycler block was allowed to rise to the designated temperatures prior to placement of the PCR plates into the heating block and heat treatment for 3 min. After incubating the plates at room temperature for over 3 min, 50 μl of the Nano-Glo HiBiT Lytic mix (Promega) was added to each well. Samples were mixed by pipetting and placing the plate on an orbital shaker (600 rpm) for 5 min. 20 μl of the samples (in triplicates) were transferred to a AlphaPlate-384 plate (Perkin Elmer). Luminescence was recorded with GloMax Discover Microplate Reader (Promega). To generate apparent Tagg curves, the data is first converted to percent stabilized by relating the observed luminescence to the luminescence of the lowest temperature (40 °C) for that given sample. Data are then fitted to obtain apparent Tagg values using the Boltzmann Sigmoid equation using Graphpad Prism 9.

Take `O=C(Cc1ccc(F)cc1)N[C@@H](Cc1ccc(OP(=O)(O)O)cc1)C(=O)NCc1ccc(F)cc1` [Compound 9, (S)-4-(3-((4-fluorobenzyl)amino)-2-(2-(4-fluorophenyl)acetamido)-3-oxopropyl)phenyl phosphate]: in experiment [1], the “improvement of binding affinity compared to 5” value is 10 fold and the affinity, expressed as Kd, was 4.2 µM. For the same compound, in experiment [2], the “ITC ΔG” value is -7.65 kcal/mol, the “ITC −TΔS” value is -3.55 kcal/mol and the dissociation constant (Kd) stood at 2.6 µM.
Regarding `Cc1cccc(CNC(=O)[C@H](Cc2ccc(OP(=O)(O)O)cc2)NC(=O)Cc2ccc(F)cc2)c1` [Compound 10, (S)-4-(2-(2-(4-fluorophenyl)acetamido)-3-((3-methylbenzyl)amino)-3-oxopropyl)phenyl phosphate], in experiment [1], the “improvement of binding affinity compared to 5” value is listed as 10 fold and the Kd was 3.7 µM. In experiment [2], the “ITC ΔG” value is -8.12 kcal/mol, the “ITC −TΔS” value is -2.31 kcal/mol and the dissociation constant Kd was 1.1 µM.
For `C[C@H](NP(=O)(Oc1ccc(C[C@H](NC(=O)Cc2ccc(F)cc2)C(=O)NCc2cccc(NC(=O)CCl)c2)cc1)Oc1cccc2ccccc12)C(=O)OCc1ccccc1` (stereo partly shown) [Compound 23], the “Produrg CETSA screening, raw signal” value in experiment [3] (n=1, temperature point 5 of 16, temperature not given) was 69363 and 80806 and 112884; in experiment [3] (n=1, temperature point 6 of 16, temperature not given), 96967 and 118352 and 144445; in experiment [3] (n=1, temperature point 7 of 16, temperature not given) it was 143643 and 166973 and 192783; in experiment [3] (n=1, temperature point 8 of 16, temperature not given), 106216 and 128406 and 210436; in experiment [3] (n=1, temperature point 9 of 16, temperature not given), 167377 and 176709 and 206363; in experiment [3] (n=1, temperature point 10 of 16, temperature not given) it was 186703 and 236478 and 300868. In addition, the “Produrg CETSA screening, raw signal” value is 231104 and 290174 and 305287 in experiment [3] (n=1, temperature point 11 of 16, temperature not given); 354321 and 369048 and 401655 in experiment [3] (n=1, temperature point 12 of 16, temperature not given); 341517 and 349800 and 466508 in experiment [3] (n=1, temperature point 13 of 16, temperature not given); 353173 and 365195 and 397047 in experiment [3] (n=1, temperature point 14 of 16, temperature not given); 381815 and 407106 and 448233 in experiment [3] (n=1, temperature point 15 of 16, temperature not given); 423512 and 424780 and 453391 in experiment [3] (n=1, temperature point 16 of 16, temperature not given). In addition, the “Produrg CETSA screening, raw signal” value is 81542 and 84696 and 155298 in experiment [3] (n=2, temperature point 1 of 16, temperature not given); 72558 and 139894 and 123324 in experiment [3] (n=2, temperature point 2 of 16, temperature not given); 87834 and 139601 and 100567 in experiment [3] (n=2, temperature point 5 of 16, temperature not given); 98775 and 175976 and 137381 in experiment [3] (n=2, temperature point 6 of 16, temperature not given); 152633 and 181253 and 191364 in experiment [3] (n=2, temperature point 7 of 16, temperature not given); 176015 and 229873 and 213107 in experiment [3] (n=2, temperature point 8 of 16, temperature not given). The “Produrg CETSA screening, raw signal” value was 189127 and 214945 and 246245 in experiment [3] (n=2, temperature point 9 of 16, temperature not given); 212633 and 267460 and 262658 in experiment [3] (n=2, temperature point 10 of 16, temperature not given); 244590 and 322245 and 338306 in experiment [3] (n=2, temperature point 11 of 16, temperature not given); 338485 and 407495 and 420421 in experiment [3] (n=2, temperature point 12 of 16, temperature not given); 375692 and 455999 and 437696 in experiment [3] (n=2, temperature point 13 of 16, temperature not given); 432064 and 448169 and 475813 in experiment [3] (n=2, temperature point 14 of 16, temperature not given). Also, the “Produrg CETSA screening, raw signal” value in experiment [3] (n=2, temperature point 15 of 16, temperature not given) is 397604 and 474479 and 457905; in experiment [3] (n=2, temperature point 16 of 16, temperature not given), 400496 and 479946 and 527841; in experiment [3] (n=3, Temp, 0C 54.1), 44604; in experiment [3] (n=3, Temp, 0C 55), 39796 and 47150 and 51627; in experiment [3] (n=3, Temp, 0C 56), 45790 and 51042 and 62078; in experiment [3] (n=3, Temp, 0C 57.1), 31202 and 38155 and 39301. Further, the “Produrg CETSA screening, raw signal” value in experiment [3] (n=3, Temp, 0C 59.2) was 28243 and 27436 and 39233; in experiment [3] (n=3, Temp, 0C 62.3), 17330 and 19655 and 29378; in experiment [3] (n=3, Temp, 0C 66.1) it was 14860 and 24999 and 29256; in experiment [3] (n=3, Temp, 0C 71.1) it was 14600 and 19386 and 22788. Besides, in experiment [3] (Prodrug screen CETSA, live HeLa cells, 50 μM, 20 h, Mean n = 3), the ΔT turned out to be 2.28 oC. For the same compound, in experiment [3] (Prodrug screen CETSA, single replicates), the “ΔT, individual replicates n1-n3” value was 0.90 oC and 3.19 oC and 2.74 oC.
